32 molecules from patent publication US20240254138A1, “TRICYCLIC PYRIMIDINES AS CYCLIN-DEPENDENT KINASE 7 (CDK7) INHIBITORS” (JANSSEN PHARMACEUTICA NV, priority 2021, published 2024) can be followed below.

In assay [1] the test system is RNA Polymerase II Serine 5 phosphorylation (Rpb1 CTD, downstream substrate of CDK7) in A549 cells. The assay can be described thus: Imaging-based cellular RNA PolII Ser5 phosphorylation assay in A549 cells. It is filed as cell-based, human. The conditions noted are these: wild-type CDK7, RNA PolII Ser5 phosphorylation, averaged over all measurements; for IC50: Homo sapiens, A549, A549 cells, read-out: CDK7_A549 Wild-type CDK7 (pIC50) (converted); for CDK7_A549 Wild-type CDK7 (pIC50): A549 cells. An excerpt: (§1) To evaluate inhibition of CDK7 kinase activity, a 384-well automated imaging assay was used. This assay detects Serine 5 phosphorylation on a unique heptapeptide sequence in the C-terminal domain of Rpb1 subunit of RNA polymerase II, the downstream substrate of CDK7. This heptapeptide sequence is repeated up to 52 times in the CTD of Rpb1.
(§2) A549 adenocarcinoma human alveolar basal epithelial cells (ATCC, CCL-185), rabbit Phospho-Rpb1 CTD (Ser5) antibody (D9N51 (Cell Signaling Technology)), DMEM (Sigma), Fetal Bovine Serum (Biowest), L-glutamine (Sigma), Penicillin/Streptomycin (Life Technologies), Sodium Pyruvate (Sigma), Hepes (Sigma), poly-D-lysine coated μclear 384 black plates (Greiner), formaldehyde (PolySciences), D-PBS (Sigma), Methanol (Sigma), Alexa Fluor 488 goat anti rabbit IgG secondary antibody (Life Technologies), HCS CellMask™ Deep Red stain (Life Technologies), Hoechst 33258 (Invitrogen).
(§3) RNA Polymerase II Serine 5 phosphorylation was detected using a specific rabbit Phospho-Rpb1 CTD (Ser5) antibody. A549 adenocarcinoma human alveolar basal epithelial cells were seeded in 20 μl medium (DMEM supplemented with 1% Fetal Bovine Serum (heat inactivated 30′ 56° C.), 2 mM L-glutamine, 50 U/ml penicillin 50 μg/ml streptomycin, 1 mM sodium pyruvate and 50 mM hepes) at 1000 cells/well and cultured in poly-D-lysine coated μclear 384 black plates for 20 hours at 37° C. and 5% CO2.
(§4) After incubation cells were challenged with compound for 3 hours at 37° C. and 5% CO2. DMSO was used as high control and as low control 10 μM of the following reference compound was used:
(§5) 40 nl of test compounds and controls were spotted in cell plates using Echo Liquid Handler (Echo 550, Labcyte). Incubation was followed by 20 minutes fixation with 20 μl 10% formaldehyde at room temperature. Medium/formaldehyde solution was removed, plates were washed 3 times with 30 μl D-PBS (w/o Ca^2+ and Ma^2+) and permeabilization was done by adding 20 μl ice cold methanol for 20 minutes. Cells were washed again 3 times with 30 μl D-PBS and 20 μl blocking buffer (25 ml fetal bovine serum in 500 ml D-PBS) was added for 1 hour.
(§6) After removing blocking buffer 20 μl 1/1000 primary antibody rabbit Phospho-Rpb1 CTD (Ser5) antibody was added which binds to the phosphorylated Serine5 of the heptapeptide sequences in the CTD of Rpb1. Primary antibody was removed, and plates were washed 3 times with 30 μl D-PBS followed by addition of 20 μl 1/2000 Alexa Fluor 488 goat anti rabbit IgG secondary antibody for final detection of Phospho-Rpb1 CTD (Ser5) together with 1/5000 HCS CellMask™ Deep Red stain for membrane staining and 1/5000 Hoechst 33258 for nucleus staining. Last, plates were washed 2 times with 30 μl D-PBS and wells were filled with 40 μL D-PBS, plates were sealed (Thermowell sealing tape) and stored at 4° C. until reading. Plates were read with Opera Phenix (Perkin Elmer) with 10× air objective. Data were calculated and analyzed in Phaedra.
(§7) IC50 values were calculated using the following formula: […]
(§8) Average value of all HC's and all LC's are used for normalizations.
(§9) A best-fit curve is fitted by a minimum sum of squares method to the plot of % Control vs. compound concentration. From this an IC50 value can be obtained. An estimate of the slope of the plot in terms of the Hill coefficient is also obtained.

Assay [2] deals with RNA Polymerase II Serine 5 phosphorylation in A549 cells overexpressing CDK7-mutant (C312S). The assay can be described thus: Imaging-based cellular RNA PolII Ser5 phosphorylation assay in A549 cells overexpressing CDK7-mutant (C312S). The conditions noted are these: RNA PolII Ser5 phosphorylation, averaged over all measurements; for IC50: Homo sapiens, A549, A549 cells overexpressing CDK7-mutant (C312S), read-out: CDK7_A549 mutant hCDK7(pIC50) (converted); for CDK7_A549 mutant hCDK7(pIC50): A549 cells overexpressing CDK7-mutant (C312S). It is filed as cell-based, human.
Text: as §1, §2, §3, §4, §5, §6, §7, §8, §9
In parallel this assay was performed in A549 cells overexpressing CDK7-mutant (C312S) to evaluate the effect of the covalent bond on potency and to screen for potential off-target effects. Mutation of Cysteine to Serine (C312S), a less nucleophilic amino acid, prevents CDK7 inhibitors from covalently binding to CDK7 and from inhibiting CDK7 activity in an irreversible manner. A stably transduced A549 cell pool was generated that overexpresses CDK7 mutant (C312S), but also expresses endogenous CDK7-WT. Covalent binders targeting the cysteine at position 312 will show a shift in potency in A549 cells overexpressing mutant C312S CDK7.

In assay [3] the target is CDK7/cyclinH/MAT1 trimeric complex (Homo sapiens, UniProt P50613). Kind of assay: In vitro CDK7 assay, potency of irreversible covalent inhibitors (kinact/KI), coupled PK/LDH ADP readout at 340 nm.

SMILES strings stand for the structures. Where two headings read alike, the source gives them in different places.

Sequence of CDK7/cyclinH/MAT1 trimeric complex (P50613 whole entry): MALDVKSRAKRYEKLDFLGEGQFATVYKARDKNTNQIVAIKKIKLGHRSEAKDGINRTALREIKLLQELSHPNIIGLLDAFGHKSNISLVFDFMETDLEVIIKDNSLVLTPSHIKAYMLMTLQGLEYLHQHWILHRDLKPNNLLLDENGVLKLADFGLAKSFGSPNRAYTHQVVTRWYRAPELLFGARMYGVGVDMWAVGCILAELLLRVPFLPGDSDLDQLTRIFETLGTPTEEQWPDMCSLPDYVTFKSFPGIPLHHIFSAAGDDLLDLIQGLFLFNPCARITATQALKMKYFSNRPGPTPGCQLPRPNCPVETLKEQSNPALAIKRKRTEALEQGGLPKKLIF
Sequence of CDK7/cyclinH/MAT1 trimeric complex (P51946 whole entry partner): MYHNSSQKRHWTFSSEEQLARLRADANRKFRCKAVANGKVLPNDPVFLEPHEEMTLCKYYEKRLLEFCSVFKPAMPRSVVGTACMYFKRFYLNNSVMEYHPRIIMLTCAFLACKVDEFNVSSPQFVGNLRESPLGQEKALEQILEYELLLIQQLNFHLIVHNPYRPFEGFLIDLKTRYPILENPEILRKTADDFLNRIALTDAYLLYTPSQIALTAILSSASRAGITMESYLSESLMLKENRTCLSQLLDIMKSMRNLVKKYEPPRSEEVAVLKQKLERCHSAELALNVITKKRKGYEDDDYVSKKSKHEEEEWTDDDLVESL
Sequence of CDK7/cyclinH/MAT1 trimeric complex (P51948 whole entry partner): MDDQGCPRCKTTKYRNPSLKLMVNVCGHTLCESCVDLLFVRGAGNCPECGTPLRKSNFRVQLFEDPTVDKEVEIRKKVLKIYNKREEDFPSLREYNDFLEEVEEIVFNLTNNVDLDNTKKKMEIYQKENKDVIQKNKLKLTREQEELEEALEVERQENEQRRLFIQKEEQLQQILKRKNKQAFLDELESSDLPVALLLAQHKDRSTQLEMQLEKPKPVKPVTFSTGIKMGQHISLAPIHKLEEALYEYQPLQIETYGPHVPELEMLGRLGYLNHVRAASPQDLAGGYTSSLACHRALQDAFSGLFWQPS

For `C=CC(=O)N1CC(N2CC[C@@H](c3ccc4c(c3)Nc3nccc(N5CCOCC5)c3CO4)[C@@H](C)C2)C1` (mixture of isomers) [Compound 70], the IC50 in assay [1] was 0.145 µM; in assay [2], > 10 µM. The kinact/KI in assay [3] (read-out: CDK7 (20 nM enz.) (kobs/[I], M^−1*s^−1), 20 nM enzyme) worked out at 634 M⁻¹ s⁻¹.
A word on the kinact: it is the rate constant of inactivation at saturating inhibitor. For the molecule `C=CC(=O)N1CC(N2CC[C@@H](c3ccc4c(c3)Nc3nccc(N5CCOCC5)c3CO4)[C@H](O)C2)C1` (mixture of isomers) [Compound 72], the results for the IC50 in assay [1] and in assay [2] were 0.589 µM and > 10 µM, respectively. Besides, the Ki in assay [3] (CDK7 (20 nM enz.) (KI, μM), 20 nM enzyme) was 0.412 µM. Besides, the kinact in assay [3] (read-out: CDK7 (20 nM enz.) (kinact, s^−1), 20 nM enzyme) was determined as 6.82e-05 s⁻¹. The kinact/KI in assay [3] (read-out: CDK7 (20 nM enz.) (kinact/KI, M^−1*s^−1), 20 nM enzyme) was 166 M⁻¹ s⁻¹.
In the case of `C=CC(=O)N1CCC(Cc2ccc3c(c2)Nc2nccc(-c4cncc(C)c4)c2CO3)C1` (centres unmarked) [Compound 5], the IC50 in assay [1] and in assay [2] was > 10 µM in each case.
Take `C=CC(=O)N1CCC(Cc2ccc3c(c2)Nc2nccc(-c4cnccc4C)c2CO3)C1` (centres unmarked) [Compound 6]: the IC50 in assay [1] is ~9.33 µM; in assay [2], > 10 µM.
Take `C=CC(=O)N1CC(N2CCC(c3cc(C)c4c(c3)Nc3nccc(N5CCOCC5)c3CO4)CC2)C1` [Compound 20]: the IC50 in assay [1] was 0.0589 µM; in assay [2], > 10 µM.
For `C=CC(=O)N1CC(N2CCC(c3cc(C)c4c(c3)Nc3nccc(N5CCOCC5)c3CO4)CC2)C1` [Compound 21], the “CDK7_A549 Wild-type CDK7 (pIC50)” value in assay [1] came to 7.34. In addition, the “CDK7_A549 mutant hCDK7(pIC50)” value in assay [2] was <5.
Turning to `C/C=C/C(=O)N1CC(N2CCC(c3ccc4c(c3)Nc3nccc(N5CCOCC5)c3CO4)CC2)C1` [Compound 106], the figures for the IC50 in assay [1] and in assay [2] were ~10 µM and > 10 µM, respectively.
For `C=CC(=O)N1CCC(N2CC(c3ccc4c(c3C)Nc3nccc(C5CCOCC5)c3CO4)C2)CC1` [Compound 131], the IC50 in assay [1] is 6.61 µM; in assay [2], > 10 µM.
The corresponding values for `C#CCCN(C)C/C=C/C(=O)N1CC(N2CCC(c3cc(Cl)c4c(c3)Nc3nccc(N5CCOCC5)c3CO4)CC2)C1` [Compound 168] are 0.0776 µM and > 10 µM.
Consider `C=CC(=O)N1CC(N2CCC(c3ccc4c(c3)Nc3nccc(C5CCOCC5)c3CO4)CC2)C1` [Compound 254], for which the “CDK7_A549 Wild-type CDK7 (pIC50)” value in assay [1] amounted to 6.97. In addition, the “CDK7_A549 mutant hCDK7(pIC50)” value in assay [2] was <5.
In the case of `C=CC(=O)N1CC(N2CCOC(c3ccc4c(c3)OCc3c(N5CCOCC5)ccnc3N4)C2)C1` (centres unmarked) [Compound 266], the IC50 in assay [1] is ~10.2 µM; in assay [2], > 10 µM.
Regarding `CC#CC(=O)N1CC(N2CCC(c3cc4c(c(C)n3)OCc3c(-c5cnn(C)c5)ccnc3N4)CC2)C1` [Compound 276], the IC50 in assay [1] was 0.195 µM; in assay [2] it was > 10 µM.
The corresponding values for `C=CC(=O)N1CC(c2nc(C)c(-c3cc4c(c(C)n3)OCc3c(N5CCOCC5)ccnc3N4)c(C)n2)C1` [Compound 280] are 0.126 µM and > 10 µM.
`C=CC(=O)N1CCC(N2CC(c3cc4c(cn3)OC(C)(C)c3c(-c5cnn(C)c5)ccnc3N4)C2)CC1` [Compound 320]: the IC50 in assay [1] and in assay [2] was > 10 µM throughout.
As to `CC(=O)N1CCC(N2CC(c3cc4c(c(C)n3)OCc3c(-c5cnn(C)c5)ccnc3N4)C2)CC1` [Compound 321], the results for the IC50 in assay [1] and in assay [2] were 9.33 µM and 8.71 µM, respectively.
The corresponding values for `CC#CC(=O)N1CC(n2cc(-c3cc4c(c(C)n3)OCc3c(N5CCOCC5)ccnc3N4)cn2)C1` [Compound 346] are 0.191 µM and > 10 µM.
The corresponding values for `CC#CC(=O)N1CCC(n2cc(-c3cc(C)c4c(c3)Nc3nccc(N5CCOCC5)c3CO4)cn2)CC1` [Compound 381] are 0.372 µM and 6.92 µM.
Turning to `C=CC(=O)N1CC(N2CCC(c3cc4c(c(P(C)(C)=O)n3)OCc3c(N5CCOCC5)ccnc3N4)CC2)C1` [Compound 383], the IC50 in assay [1] and in assay [2] was > 10 µM each time.
As for `C=CC(=O)N1CCC(n2cc(-c3cc4c(c(C)n3)OCc3c(N5CCOCC5)ccnc3N4)cn2)CC1` [Compound 390], the IC50 in assay [1] is 0.214 µM; in assay [2] it was 8.71 µM.
The matching figures for `C=CC(=O)N1CCC(Oc2cc(-c3cc4c(c(C)n3)OCc3c(N5CCOCC5)ccnc3N4)ccn2)CC1` [Compound 407]: 1.91 µM and 7.76 µM.
The corresponding values for `C=CC(=O)N1CCC(n2ccc(-c3ccc4c(c3)OCc3c(N5CCOCC5)ccnc3N4)cc2=O)CC1` [Compound 408] are > 10 µM and > 10 µM.
The matching figures for `CC#CC(=O)N1CCC(Oc2cc(-c3cc4c(c(C)n3)OCc3c(N5CCOCC5)ccnc3N4)ccn2)CC1` [Compound 409]: 1.45 µM and 7.08 µM.
In the case of `CC#CC(=O)N1CCC(n2ccc(-c3ccc4c(c3)OCc3c(N5CCOCC5)ccnc3N4)cc2=O)CC1` [Compound 412], the IC50 is 9.77 µM in assay [1] and > 10 µM in assay [2].
Consider `Cc1nc(C2CCN(C3CN(C(=O)/C=C/C(=O)O)C3)CC2)cc2c1OCc1c(-c3cnn(C)c3)ccnc1N2` [Compound 432], for which the IC50 in assay [1] and in assay [2] was > 10 µM throughout.
With `CC#CC(=O)N1CCC(C2CN(c3cc4c(c(C)n3)OCc3c(N5CCOCC5)ccnc3N4)C2)CC1` [Compound 451], the values for the IC50 in assay [1] and in assay [2] were 0.302 µM and > 10 µM, respectively.
The corresponding values for `C=CC(=O)N1CCC2(CC1)CCN(c1cc3c(c(C)n1)OCc1c(-c4cnn(C)c4)ccnc1N3)CC2` [Compound 479] are > 10 µM and > 10 µM.
The matching figures for `CC#CC(=O)N1CCC(N2CC(c3cc4c(c(C#N)n3)OC(C)c3c(N5CCOCC5)ccnc3N4)C2)CC1` (centres unmarked) [Compound 511]: 0.115 µM and 5.62 µM.
The corresponding values for `CC#CC(=O)N1CC(N2CCC(c3cc4c(c(C#N)n3)OC(C)c3c(N5CCOCC5)ccnc3N4)CC2)C1` (centres unmarked) [Compound 514] are 0.324 µM and > 10 µM.
Take `C/C=C/C(=O)N1CC(N2CCC(c3cc4c(c(C)n3)OCc3c(-c5cnn(C)c5)ccnc3N4)CC2)C1` [Compound 537]: the IC50 in assay [1] and in assay [2] was > 10 µM in each case.
`CC#CC(=O)N1CC(N2CCC(c3cc4c(c(C)n3)OCc3c(-c5cnn(C)c5)ccnc3N4)CC2)C1` [Compound 538]: in assay [1], the “CDK7_A549 Wild-type CDK7 (pIC50)” value stood at 6.49. The “CDK7_A549 mutant hCDK7(pIC50)” value in assay [2] is reported as <5.
Turning to `CC#CC(=O)N1CCC(N2CC(c3nc(C)c4c(n3)Nc3nccc(N5CCOCC5)c3[C@@H](C)O4)C2)CC1` [Compound 546], the IC50 is 2.75 µM in assay [1] and > 10 µM in assay [2].
For the molecule `CC#CC(=O)N1CCC(N2CC(c3nc(C)c4c(n3)Nc3nccc(N5CCOCC5)c3[C@H](C)O4)C2)CC1` [Compound 547], the IC50 in assay [1] and in assay [2] was > 10 µM in each case.
